Assay results as given in patent publication US10640507B2, “PBD antibacterial agents” (KING'S COLLEGE LONDON, priority 2015, dated 2020).
In brackets after ≈: the same amount, converted by molar mass. Read-outs that look alike come from different tables or passages of the source.

How the values were obtained:
[1] = tested on: EMRSA-15; experiment: General MIC protocol, Gram positive panel; assay type: cell-based
Protocol: (§1) General Minimum Inhibitory Concentration (MIC) Protocol
(§2) 1. Grow up cultures of bacterial strains to be tested overnight.
(§3) 2. Dilute down overnight cultures to concentration of 1×10^6 bacteria/ml (OD0.01) in Tryptic soy broth (TSB).
(§4) 3. Add 100 μl of TSB media to column 2-column 12 in 96 well plate (keeping column 1 clear).
(§5) 4. Make up compound to a concentration of 64 μg/ml in water (or alternatively to twice the chosen maximum concentration to be tested).
(§6) 5. Add 100 μl of antibiotic solution to the 1st and 2nd columns.
(§7) 6. Using a multichannel pipette take 100 μl from the 2nd column wells and pipette into 3rd column wells and repeat down the 96 well plate (remembering to include controls i.e. uninfected media and media with no antibiotic).
(§8) 7. To each well (except uninfected control row H) add 100 μl of bacterially infected media at a concentration of 1×10^6/ml.
(§9) 8. This dilutes down the concentration of the antibiotic by half (top dose is therefore 32 μg/ml in column 1) and also gives you a starting bacterial concentration of 5×10^5/ml.
(§10) 9. Wrap plate with parafilm to prevent evaporation.
(§11) 10. Leave at desired temperature (37° C. unless specified elsewhere) for 20 hours.
(§12) 11. Next day check plates for growth and measure optical density (i.e. absorbance) at a wavelength of 600 nm (OD600).
(§13) An example of such a plate is shown in FIG. 1 where column A represents wells that receive the top dose 100 μl; column B represents wells that receive the top dose 100 μl+100 μl TSB; and column C represents wells that receive 100 μl TSB. Row H which is marked by a box labelled D represents a blank where the cells receive no bacteria.

[2] = tested on: methicillin sensitive S. aureus ATTC 9144 (NCTC 6571); experiment: General MIC protocol, Gram positive panel; assay type: cell-based; conditions: Staphylococcus aureus, MSSA / NCTC 6571; MSSA 9144
Protocol: as §1, §2, §3, §4, §5, §6, §7, §8, §9, §10, §11, §12, §13

[3] = tested on: E. faecalis VSE NCTC 775; experiment: General MIC protocol, Gram positive panel; assay type: cell-based; conditions: Enterococcus faecalis, NCTC775; VSE 775
Protocol: as §1, §2, §3, §4, §5, §6, §7, §8, §9, §10, §11, §12, §13

[4] = tested on: E. faecalis VRE NCTC 12201; experiment: General MIC protocol, Gram positive panel; assay type: cell-based
Protocol: as §1, §2, §3, §4, §5, §6, §7, §8, §9, §10, §11, §12, §13

[5] = tested on: EMRSA-16; experiment: General MIC protocol, Gram positive panel; assay type: cell-based
Protocol: as §1, §2, §3, §4, §5, §6, §7, §8, §9, §10, §11, §12, §13

[6] = tested on: E. faecium VRE NCTC 12204; experiment: General MIC protocol, Gram positive panel; assay type: cell-based
Protocol: as §1, §2, §3, §4, §5, §6, §7, §8, §9, §10, §11, §12, §13

[7] = tested on: AYE; experiment: Effect of efflux pump inhibitors (EPIs) on MIC; assay type: cell-based, A. bauamnnii; conditions: for +PABN MIC: PABN at 25 μg/ml
Protocol: as §2, §3, §4
(§14) 4. Make up compound to a concentration of 64 μg/ml in water.
as §6
(§15) 6. Using a multichannel pipette take 100 μl from the 2nd column wells and pipette into 3rd column wells and repeat down the 96 well plate (remember to include controls i.e. uninfected media and media with no antibiotic).
(§16) 7. To each well (except uninfected control row H) add 50 μl/well of EPI at 4× final concentration in TSB.
(§17) 9. In wells used to test the effect of the EPI carbonyl cyanide 3-chlorophenylhydrazone (CCCP) the CCCP is added at 10 μg/ml final concentration.
(§18) 10. In wells used to test the effect of the EPI phenylalanine-arginine β-naphthylamide (PABN) the PABN is added at 25 μg/ml final concentration.
(§19) 11. In wells used to test the effect of the PABN+Mg, the PABN is added at 25 μg/ml final concentration, with 1 mM MgSO4 in TSB.
(§20) 12. Wrap plate with parafilm to prevent evaporation.
(§21) 13. Leave at desired temperature (37° C. unless specified elsewhere) for 20 hours.
(§22) 14. Next day check plates for growth and measure optical density (i.e. absorbance) at a wavelength of 600 nm (OD600).
(§23) Compound KMR-14-33 was tested against a range of bacterial species using the above protocol. Compound PP-A148 was also tested against a more limited range of bacterial species using the above protocol. For KMR-14-33 measurements were carried out for the compound alone, for the compound plus CCCP, for the compound plus PABN and for the compound plus PABN and plus Mg. For PP-A148 measurements were carried out for the compound alone and for the compound plus PABN.

[8] = tested on: NCTC 17978; experiment: Effect of efflux pump inhibitors (EPIs) on MIC; assay type: cell-based, A. bauamnnii; conditions: for +PABN MIC: PABN at 25 μg/ml
Protocol: as §2, §3, §4, §14, §6, §15, §16, §17, §18, §19, §20, §21, §22, §23

[9] = tested on: PA01; experiment: Effect of efflux pump inhibitors (EPIs) on MIC; assay type: cell-based, P. aeruginosa; conditions: for +PABN MIC: PABN at 25 μg/ml; for MIC: Pseudomonas aeruginosa
Protocol: as §2, §3, §4, §14, §6, §15, §16, §17, §18, §19, §20, §21, §22, §23

[10] = tested on: NCTC 13437; experiment: Effect of efflux pump inhibitors (EPIs) on MIC; assay type: cell-based, P. aeruginosa; conditions: for +PABN MIC: PABN at 25 μg/ml; for MIC: Pseudomonas aeruginosa
Protocol: as §2, §3, §4, §14, §6, §15, §16, §17, §18, §19, §20, §21, §22, §23

[11] = tested on: A. baumannii - NCTC 17978; experiment: Time kill kinetics; assay type: cell-based; conditions: drug at 4×MIC
Protocol: 1. Grow bacteria overnight.
2. Subculture into an autoclaved conical flask containing 10 ml of TSB to an OD of 0.01 (˜1×10^7 Cfu/ml for KP-M6).
4. Take aliquots (100 μl) at timepoints (0, 1, 2, 4, 6, 24 hours) and carry out a serial dilution in PBS (to remove drug and to dilute bacteria to countable numbers).
5. Use the serial dilution to perform a Miles Misra—i.e. Add 3×10 μl spots of each dilution onto an agar plate. Incubate overnight and count colonies on spots in the morning.
6. Control: Subculture bacteria alongside samples but with no antibiotic added. Take aliquots from this at every time point (0, 1, 2, 4, 6, 24 hours) and perform Miles Misra on these too (as detailed in points 4 and 5 above).
7. After the first experiment, if the counts seen on Miles-Misra were zero, total viable counts were determined by spreading 200 μl in a streak down the centre of a TSB agar plate, waiting for the liquid to be absorbed and then spreading over the plate and checking for growth inhibition at the sight of the original streak.
8. The compound is considered bactericidal if the inoculum was reduced >3 log10 CFU/ml and bacteriostatic if inoculum was reduced by 0-3 log10 CFU/ml.
Three measurements were taken for each compound at each time point. These measurements were averaged and the standard deviation was also calculated.

[12] = read-out: Control with no EPI MIC
[13] = no EPI, read-out: Control with no EPI MIC
[14] = NCTC13437, read-out: Control with no EPI MIC
[15] = CCCP at 10 μg/ml, read-out: +CCCP MIC
[16] = PABN at 25 μg/ml with 1 mM MgSO4

COc1cc2c(cc1OCCCC(=O)Nc1cc(C(=O)Nc3ccc4oc(C(=O)N5CCSCC5)cc4c3)n(C)c1)N=C[C@@H]1CCCN1C2=O [PP-A148, (S)-4-(4-((7-methoxy-5-oxo-2,3,5,11a-tetrahydro-1H-benzo-[e]pyrrolo[1,2-a][1,4]diazepin-8-yl)oxy)butanamido)-1-methyl-N-(2-(thiomorpholine-4-carbonyl)benzofuran-5-yl)-1H-pyrrole-2-carboxamide]
MIC [1]: 2 µg/mL (≈ 2.86 µM) | MIC [2]: 0.5 µg/mL (≈ 0.716 µM) | MIC [3]: 1 µg/mL (≈ 1.43 µM) | MIC [4]: 0.25 to 0.5 µg/mL (≈ 0.358 to 0.716 µM) | MIC [5]: 2 µg/mL (≈ 2.86 µM) | MIC [6]: 0.01 µg/mL (≈ 0.0143 µM) | +PABN MIC ([7]; AYE): 0.125 to 0.5 µg/mL | MIC [7, 12]: 2 µg/mL (≈ 2.86 µM) | +PABN MIC [8]: 0.125 to 0.5 µg/mL | MIC [8, 13]: 2 µg/mL (≈ 2.86 µM) | +PABN MIC [9]: 4 to 8 µg/mL | MIC [9, 13]: 128 µg/mL (≈ 183 µM) | +PABN MIC ([10]; NCTC 13437): 0.25 to 2 µg/mL | MIC [10, 14]: 16 µg/mL (≈ 22.9 µM)

COc1cc2c(cc1OCCCC(=O)Nc1cc(C(=O)Nc3ccc4sc(C(=O)N(C)C)cc4c3)n(C)c1)N=C[C@@H]1CCCN1C2=O [KMR-14-33, (S)—N-(2-(dimethylcarbamoyl)benzo[b]thiophen-5-yl)-4-(4-((7-methoxy-5-oxo-2,3,5,11a-tetrahydro-1H-benzo[e]pyrrolo[1,2-a][1,4]-diazepin-8-yl)oxy)butanamido)-1-methyl-1H-pyrrole-2-carboxamide]
Average (CFU/ml) ([11]; time-point 1 hours): 0 CFU/ml | n = 1 (Log CFU/ml) ([11]; time-point 1 hours): 0 Log CFU/ml | n = 2 (Log CFU/ml) ([11]; time-point 1 hours): 0 Log CFU/ml | n = 3 (Log CFU/ml) ([11]; time-point 1 hours): 0 Log CFU/ml | Average (CFU/ml) ([11]; time-point 2 hours): 0 CFU/ml | n = 1 (Log CFU/ml) ([11]; time-point 2 hours): 0 Log CFU/ml | n = 2 (Log CFU/ml) ([11]; time-point 2 hours): 0 Log CFU/ml | n = 3 (Log CFU/ml) ([11]; time-point 2 hours): 0 Log CFU/ml | Average (CFU/ml) ([11]; time-point 4 hours): 0 CFU/ml | n = 1 (Log CFU/ml) ([11]; time-point 4 hours): 0 Log CFU/ml | n = 2 (Log CFU/ml) ([11]; time-point 4 hours): 0 Log CFU/ml | n = 3 (Log CFU/ml) ([11]; time-point 4 hours): 0 Log CFU/ml | Average (CFU/ml) ([11]; time-point 6 hours): 0 CFU/ml | n = 1 (Log CFU/ml) ([11]; time-point 6 hours): 0 Log CFU/ml | n = 2 (Log CFU/ml) ([11]; time-point 6 hours): 0 Log CFU/ml | n = 3 (Log CFU/ml) ([11]; time-point 6 hours): 0 Log CFU/ml | Average (CFU/ml) ([11]; time-point 24 hours): 0 CFU/ml | n = 1 (Log CFU/ml) ([11]; time-point 24 hours): 0 Log CFU/ml | n = 2 (Log CFU/ml) ([11]; time-point 24 hours): 0 Log CFU/ml | n = 3 (Log CFU/ml) ([11]; time-point 24 hours): 0 Log CFU/ml | MIC [1]: 0.03 µg/mL (≈ 0.0457 µM) | MIC [2]: 0.03 µg/mL (≈ 0.0457 µM) | MIC [3]: 0.03 µg/mL (≈ 0.0457 µM) | MIC [4]: 0.03 µg/mL (≈ 0.0457 µM) | MIC [5]: 0.06 µg/mL (≈ 0.0914 µM) | MIC [6]: 0.03 µg/mL (≈ 0.0457 µM) | +PABN MIC ([7]; AYE): 0.125 µg/mL | +PABN + Mg MIC ([7]; AYE, PABN at 25 μg/ml with 1 mM MgSO4): 0.25 µg/mL | MIC ([7]; read-out: +CCCP MIC): 0.125 µg/mL (≈ 0.19 µM) | MIC [7, 12]: 1 µg/mL (≈ 1.52 µM) | MIC [8, 15]: 0.25 µg/mL (≈ 0.381 µM) | +PABN MIC [8]: 0.06 µg/mL | +PABN + Mg MIC [8, 16]: 0.25 µg/mL | MIC [8, 13]: 0.5 µg/mL (≈ 0.761 µM) | +PABN MIC [9]: 4 µg/mL | +PABN + Mg MIC [9, 16]: 2 µg/mL | MIC [9, 15]: > 32 µg/mL | MIC [9, 13]: > 32 µg/mL | +PABN MIC ([10]; NCTC 13437): 16 µg/mL | +PABN + Mg MIC ([10]; NCTC 13437, PABN at 25 μg/ml with 1 mM MgSO4): 16 µg/mL | MIC ([10]; NCTC13437, read-out: +CCCP MIC): > 32 µg/mL | MIC [10, 14]: > 32 µg/mL
